Results: patent US12728119B2, “Pharmaceutical composition for preventing or treating cancer comprising 3-ketoacyl CoA thiolase inhibitor and carnitine acylcarnitine carrier inhibitor” (NATIONAL CANCER CENTER, priority 2020, dated 2026)

Assays:
Type in all cases: cell-based
[1] = test system: A375 melanoma cell line; assay: SRB analysis 3; conditions: Gemcitabine 5 μM, 48 hours
Description: (§1) Through SRB analysis (n=3), the effect of triple combination treatment of a CAC inhibitor (KN510: omeprazole), ACAA inhibitor (KN713: trimetazidine) and other anticancer drug on cell growth in the cancer cells was analyzed. (see Table 11).
(§2) The SRB assay was performed as follows: each cell line (100 μl) was seeded into 96-well microtiter plates at densities ranging from 5,000 to 40,000 cells/well depending on the doubling time of each cell line. After 24 hours, drug (100 μl per well) was added to each well and the culture was incubated at 37° C. for 48 hours. Cells were then fixed in 50% TCA (50 μl per well) and plates were incubated at 4° C. for a minimum of 1 hour or a maximum of 3 hours. After that, the liquid was removed from the plate, then rinsed 5 times with water and dried for approximately 12-24 hours at room temperature (RT). After the fixed cells were stained with 0.4% SRB (100 μl per well) for 10 minutes at room temperature, the plates were washed 3 times with 1% glacial acetic acid and dried at room temperature for about 12-24 hours. SRB staining was dissolved in 10 mM Trizma base and absorbance was read at 515 nm. The effect of the drug was expressed as GI50 (50% growth inhibition), TGI (total growth inhibition) or LC50 (lethal concentration). GI50 is the maximum concentration at the moment of 50% inhibition of cell proliferation and IC50 is the concentration of the drug that inhibits the enzyme activity in vitro by 50% in this study.

[2] = test system: A549 non-small cell lung cancer (NSCLC) cell line; assay: SRB analysis 3; conditions: Gemcitabine 2.5 μM, 48 hours
Description: as §1, §2

[3] = test system: ACHN renal cancer cell line; assay: SRB analysis 3; conditions: Gemcitabine 2.5 μM, 48 hours
Description: as §1, §2

[4] = test system: AGS gastric cancer cell line; assay: SRB analysis 3; conditions: Gemcitabine 2.5 μM, 48 hours
Description: as §1, §2

[5] = test system: AsPC-1 pancreatic cancer (PDAC) cell line; assay: SRB analysis 3; conditions: Gemcitabine 2.5 μM, 48 hours
Description: as §1, §2

[6] = test system: COLO-205 colon cancer cell line; assay: SRB analysis 3; conditions: Gemcitabine 2.5 μM, 48 hours
Description: as §1, §2

[7] = test system: Caki-1 renal cancer cell line; assay: SRB analysis 3; conditions: Gemcitabine 2.5 μM, 48 hours
Description: as §1, §2

[8] = test system: DU145 prostate cancer cell line; assay: SRB analysis 3; conditions: Gemcitabine 5 μM, 48 hours
Description: as §1, §2

[9] = test system: H1975 non-small cell lung cancer (NSCLC) cell line; assay: SRB analysis 3; conditions: Gemcitabine 2.5 μM, 48 hours
Description: as §1, §2

[10] = test system: HCT-116 colon cancer cell line; assay: SRB analysis 3; conditions: Gemcitabine 2.5 μM, 48 hours
Description: as §1, §2

[11] = test system: Huh-7 liver cancer cell line; assay: SRB analysis 3; conditions: Gemcitabine 2.5 μM, 48 hours
Description: as §1, §2

[12] = test system: MCF7 breast cancer cell line; assay: SRB analysis 3; conditions: Gemcitabine 2.5 μM, 48 hours
Description: as §1, §2

[13] = test system: MDA-MB-231 breast cancer cell line; assay: SRB analysis 3; conditions: Gemcitabine 2.5 μM, 48 hours
Description: as §1, §2

[14] = test system: MIA PaCa-2 pancreatic cancer (PDAC) cell line; assay: SRB analysis 3; conditions: Gemcitabine 2.5 μM, 48 hours
Description: as §1, §2

[15] = test system: MKN45 gastric cancer cell line; assay: SRB analysis 3; conditions: MKN-45; Gemcitabine 2.5 μM; 48 hours
Description: as §1, §2

[16] = test system: OVCAR-8 ovarian cancer cell line; assay: SRB analysis 3; conditions: Gemcitabine 2.5 μM, 48 hours
Description: as §1, §2

[17] = test system: PC-3 prostate cancer cell line; assay: SRB analysis 3; conditions: Gemcitabine 5 μM, 48 hours
Description: as §1, §2

[18] = test system: SK-OV-3 ovarian cancer cell line; assay: SRB analysis 3; conditions: Gemcitabine 2.5 μM, 48 hours
Description: as §1, §2

[19] = test system: SK-hep-1 liver cancer cell line; assay: SRB analysis 3; conditions: Gemcitabine 2.5 μM, 48 hours
Description: as §1, §2

[20] = test system: UACC62 melanoma cell line; assay: SRB analysis 3; conditions: Gemcitabine 5 μM, 48 hours
Description: as §1, §2

[21] = test system: T87G glioblastoma (GBM) cell line; assay: SRB analysis 3; conditions: Gemcitabine 5 μM, 48 hours
Description: as §2, with “Through SRB analysis (n=3), the effect of triple combination treatment of a CAC inhibitor ([…] inhibitor (KN713: trimetazidine) and other anticancer drug on cell growth in the cancer cells was analyzed. (see Table 11). The” for “The”, “nm.” for “nm. The effect of the drug was expressed as GI50 (50% growth inhibition), TGI (total growth inhibition) or LC50 (lethal concentration). GI50 is the maximum concentration at the moment of 50% inhibition of cell proliferation and IC50 is the concentration of the drug that inhibits the enzyme activity in vitro by 50% in this study.”

[22] = test system: U87MG glioblastoma (GBM) cell line; assay: SRB analysis 3; conditions: Gemcitabine 5 μM, 48 hours
Description: as §2, with “Through SRB analysis (n=3), the effect of triple combination treatment of a CAC inhibitor ([…] inhibitor (KN713: trimetazidine) and other anticancer drug on cell growth in the cancer cells was analyzed. (see Table 11). The” for “The”, “nm.” for “nm. The effect of the drug was expressed as GI50 (50% growth inhibition), TGI (total growth inhibition) or LC50 (lethal concentration). GI50 is the maximum concentration at the moment of 50% inhibition of cell proliferation and IC50 is the concentration of the drug that inhibits the enzyme activity in vitro by 50% in this study.”

[23] = test system: cancer cells; assay: SRB analysis 3, triple combination, summary over cancer panels
Description: as §1, §2

## Nc1ccn([C@@H]2O[C@H](CO)[C@@H](O)C2(F)F)c(=O)n1 [Gemcitabine]
[1]
  cell growth (Control = 100): 25.12
[2]
  cell growth (Control = 100): 19.65
[3]
  cell growth (Control = 100): −47.9775
[4]
  cell growth (Control = 100): 15.95
[5]
  cell growth (Control = 100): 20.83
[6]
  cell growth (Control = 100): 6.029
[7]
  cell growth (Control = 100): 28.94
[8]
  cell growth (Control = 100): 45.33
[9]
  cell growth (Control = 100): 16.14
[10]
  cell growth (Control = 100): 3.788
[11]
  cell growth (Control = 100): 33.13
[12]
  cell growth (Control = 100): 12.31
[13]
  cell growth (Control = 100): 65.05
[14]
  cell growth (Control = 100): 25.9
[15]
  cell growth (Control = 100): 36.14
[16]
  cell growth (Control = 100): 21.24
[17]
  cell growth (Control = 100): 48.0
[18]
  cell growth (Control = 100): 24.21
[19]
  cell growth (Control = 100): 22.18
[20]
  cell growth (Control = 100): 31.60
[21]
  cell growth (Control = 100): 53.69
[22]
  cell growth (Control = 100): 3.67
[23]; Breast Cancer, BT-549, MDA MB 231
  Positive/Negative (triple combination of KN510, KN713 and the listed anticancer drug): negative
[23]; Colon Cancer, HT-29, COLO-205
  Positive/Negative (triple combination of KN510, KN713 and the listed anticancer drug): negative
[23]; GBM, U87MG, T87G
  Positive/Negative (triple combination of KN510, KN713 and the listed anticancer drug): negative
[23]; Liver Cancer, SNU-449, Huh-7
  Positive/Negative (triple combination of KN510, KN713 and the listed anticancer drug): negative
[23]; NSCLC, A549, H522
  Positive/Negative (triple combination of KN510, KN713 and the listed anticancer drug): negative
[23]; Ovarian Cancer, SK-OV-3, OVCAR-3
  Positive/Negative (triple combination of KN510, KN713 and the listed anticancer drug): negative
[23]; PDAC, MIA PaCa-2, PANC-1
  Positive/Negative (triple combination of KN510, KN713 and the listed anticancer drug): Positive
[23]; Prostate Cancer, PC-3, DU-145
  Positive/Negative (triple combination of KN510, KN713 and the listed anticancer drug): Positive
[23]; Renal cell carcinoma, ACHN, CAKI-1
  Positive/Negative (triple combination of KN510, KN713 and the listed anticancer drug): negative
[23]; Stomach Cancer, MKN-28, AGS
  Positive/Negative (triple combination of KN510, KN713 and the listed anticancer drug): negative
[23]; melanoma, UACC62, A375
  Positive/Negative (triple combination of KN510, KN713 and the listed anticancer drug): Positive
